Measured values: patent US10328051B2, “Proline or proline derivatives for the treatment of dementia” (priority 2014, dated 2019)

What was measured:
[1] = Tissue distribution and pharmacokinetics of single dose of radiolabelled 3H-CHP in mice (Study IPSS C053); format: in vivo; conditions: for Tissues that accumulated particularly high CHP concentrations: single dose 3H-CHP; for AUC-1 in the stomach / Cmax in the stomach / Cmax in brain & pituitary gland / AUC-1 for remaining carcass as % of the totaled AUC-1 for all tissues & samples: single dose 50 μCi 3H-CHP
Excerpt: Example 1: Tissue Distribution and Pharmacokinetic Study with CHP Study “Clinical Study in Mice on the Tissue Distribution and Pharmacokinetics of Single Dose of the Radiolabelled ^3H-CHP-Study No.: IPSS C053”—(FIG. 1). This Study has been Designed and Performed According to this Invention
1. Determination of ^3H-CHP distribution in 25 tissues, remaining carcass and whole blood over time.
2. Determination of pharmacokinetic parameters of CHP.
3. Comparison of intravenous (IV), and oral routes of administration.
^3H-CHP Labelling • CHP was labelled on the 4-prime position using tritium. • The scintillation counting technique detects the tritium atom. • Therefore the counting technique detects CHP and some metabolites which incorporate the tritium. […] They were selected using inclusion and exclusion criteria, and were therefore highly standardised.
Dosing Regimen • 48 animals were each administered 50 μCi ^3H-CHP at the start of the experiment. This was termed time zero (00:00 hrs). • 27 mice were dosed via the intravenous (IV) route. • 21 mice were dosed via the oral route. • Six (6) animals were not administered with CHP. They form two control groups of 3 mice each.
Data Collection • 3 mice were sacrificed following the SOP for anesthesia and according to the following time intervals
Sample Collection • From each sacrificed mouse, the following samples were taken: • Whole BloodEyes & Harderian GlandsKidneys & Adrenal GlandsAortaLiverLungSpleenUrinary BladderBone & Bone MarrowCaecumSmall IntestineLarge IntestineLymph Nodes (Mesenteric) Muscle, PancreasBrain & Pituitary GlandBrown FatSubcutaneous FatHeartThymousBoth TestesProstateSkinStomachThyroidSalivary GlandsRemaining CarcassUrine (collected if possible: in practise this was rare)
The remaining carcass sample consisted of the rest after removal of whole blood and the other tissues. Any material cleaned from other tissues listed above was also included. The collected remainings were homogenised before analysis.

[2] = Tissue distribution, bioaccumulation and pharmacokinetics following multiple dose administration of 3H-CHP in mice (Study IPSS E015); format: in vivo; conditions: multiple dose administration
Excerpt: Example 2. A Study in Mice on the Tissue Distribution, Bioaccumulation and Pharmacokinetics in Tissues, Connective and BrainTissues Following Multiple Dose Administration of ^3H-CHP Study No. IPSS E015 (FIG. 2)
According to this invention the study has been designed and performed as follows:
From each mouse sacrificed, the following organs & tissues samples were taken:
Liver, kidney, pancreas, limbic system, spinal fluid, brain stem, cerebrum, cerebellum, cartilage, ligaments and tendons (dense or fibrous connective tissue), loose connective tissue, and reticular connective tissue (supports lymph nodes, bone marrow, and spleen)

[3] = Multiple dose ascending bioavailability and safety study (Phase I) with oral CHP (Study 0202-71); format: in vivo, human
Experimental: Example 5—Study Title: Multiple Dose Ascending Bioavailability and Safety Study Phase 1 with Oral CHP-GALMED Study No: 0202-71
12 healthy Caucasian males were recruited (age: 18-45 years).
Multiple doses of CHP were orally administered: • 4×2.0 g CHP per day, for 14 consecutive days (total daily dose=8.0 g CHP) • 4×3.0 g CHP per day, for 14 consecutive days (total daily dose=12.0 g CHP) Each dose level was administered to all volunteers.
Objectives • To determine the pharmacokinetic parameters and safety of CHP and THP in plasma following oral administration of multiple doses of 8 g CHP (4×2 g) and 12 g CHP (4×3 g)—4× daily, τ=6 h, respectively, in 12 healthy subjects on Day 1 and Day 14. • To model and simulate plasma concentrations of CHP and THP during Days 1 to 14.

[4] = Single ascending oral doses of CHP (Study 1001-68) and single IV dose (Study 0302-72): pharmacokinetics and safety in healthy volunteers; format: in vivo, human; conditions: healthy subjects
Excerpt: study title Safety, tolerability and pharmacokinetic profile of single ascending doses of oral cis-4-hydroxy-L-proline (CHP) in healthy volunteers Galmed study no. 1001-68-. Results FIGS. 3 and 4.
Study title: Single Dose Absolute Bioavailability (intravenous IV solution) and Safety Study of CHP in Healthy Volunteers-GALMED Study No: 0302-72. Results are in (FIGS. 5 and 6)
Six healthy volunteers (male, caucasian—18-45 years old) were recruited from the GCP-Galmed clinical centre. All healthy volunteers provided written informed consent prior to study participation. The study was approved by the independent Ethical Committee.
All volunteers were orally administered 2, 4, 6, 8, 10 and 12 grams of CHP with a wash out period of at least one week between doses of CHP.
The following blood and urine samples were collected for determination of the pharmacokinetics parameters of CHP and THP:
10 hours and immediately prior to administration of CHP (0 Hour), and at 0.25, 0.5, 1, 1.5, 2, 2.5, 3, 4, 5, 6, 12 and 24 hours after administration of CHP.
Urine was collected for the determination of the CHP and THP concentrations and the calculation of the elimination parameters of CHP and THP.
Six healthy volunteers (male, caucasian—18-45 years old) were recruited from the GCP-Galmed clinical centre. All healthy volunteers provided written informed consent prior to study participation. The study was approved by the independent Ethical Committee. Single doses of CHP were intravenously administered: 2.0 g, 4.0 g (2×2.0 g). Each dose level was administered to all healthy volunteers. There was a washout period of at least one week between doses.
The following safety parameters were determined at the pre- and post-study examinations: • 1. Vital signs • 2. Clinical laboratory: Blood chemistry, Haematology, Coagulation, Urinalysis • 3. Adverse events (Signs and Symptoms) have been recorded in each of the two treatment periods.

[5] = male, human, plasma, healthy subjects, oral 4×2.0 g CHP/day
[6] = oral CHP, administration 4× daily
[7] = after oral administration of CHP 2 g-12 g

O=C(O)C1C[C@H](O)CN1 (stereo partly shown) [^3H-CHP]
Tissues that accumulated particularly high CHP concentrations ([1]; intravenous application): Pancreas, lymph nodes (mesenteric), kidneys & adrenal Glands, caecum, large intestine, small intestine, spleen, liver, urinary bladder | Tissues that accumulated particularly high CHP concentrations ([1]; oral application): Pancreas, stomach, kidneys & adrenal glands, small intestine, lymph nodes (mesenteric), spleen, caecum, bone & bone marrow, large intestine, and liver | AUC-1 in the stomach ([1]; IV): 10.493 DPM/mg | Cmax in the stomach ([1]; IV): 3.269 DPM/mg | Cmax in brain & pituitary gland ([1]; IV, control 4 DPM/mg): 876 DPM/mg | AUC-1 for remaining carcass as % of the totaled AUC-1 for all tissues & samples ([1]; intravenous (IV)): 73.3% | AUC-1 for remaining carcass as % of the totaled AUC-1 for all tissues & samples ([1]; oral): 61.8% | AUC-1 in the stomach ([1]; oral): 27.297 DPM/mg | Cmax in the stomach ([1]; oral): 7.361 DPM/mg | Cmax in brain & pituitary gland ([1]; oral, control 1 DPM/mg): 419 DPM/mg | Tissues with particular high levels of 3H-CHP accumulation [2]: kidneys and adrenal glands liver, pancreas loose connective tissue cartilage, reticular connective tissue, dense/fibrinous connective tissues

O=C(O)[C@@H]1C[C@@H](O)CN1 [THP, trans-4-hydroxy-L-proline]
Cmax [3, 5]: 9560 ng/mL | Tmax [3, 5]: 1.5 h | half-life [3, 5]: 744 min | MRT inf ([3]; male, human, plasma, healthy subjects, oral 4×2.0 g CHP/day, read-out: MRT (0-inf)): 19.1 h | Accumulation following oral administration ([3]; multiple oral doses of CHP): remarkable extent | Time after which a steady state was observed ([3]; multiple oral doses of CHP, 4× daily, simulation of plasma concentration-time curves): ~96 h | Css,min lower if 2.0 g of CHP was administered (versus 3.0 g) [3, 6]: 24% | Increase of AUCss,t, Css,max and Css,ave when the dose was increased from 2.0 g up to 3.0 g [3, 6]: approximately 50% | Oral clearance (average) [4, 7]: 798.42 mL/min | Volume of distribution (average) [4, 7]: 804.70 L | Correlation of Cmax and AUC(0-∞) with dose ([4]; oral CHP doses 2 g-12 g): dose linearity | MRT ([4]; male, human, blood, after oral administration of CHP 2 g-12 g, read-out: Mean residence time (MRT) (average)): 23.2 h | half-life ([4]; male, human, in vivo, after oral administration of CHP 2 g-12 g, read-out: Elimination half life (average) (converted)): 889 min | Tmax ([4]; male, human, plasma, after oral administration of CHP 2 g-12 g): 4.92 h
